We go through five compounds from ChEMBL document CHEMBL5465560, “Selectivity Literature for EUbOPEN Chemogenomic Library” (2024).

In experiment [1] the target is Dual specificity protein kinase CLK4 (Homo sapiens, UniProt Q9HAZ1). The experiment is described as follows: Selectivity interaction (ProQinase) EUB0000171b CLK4.
Experiment [2] addresses T1, Serine/threonine-protein kinase PLK4 (Homo sapiens) (UniProt O00444).
T1 sequence (whole entry): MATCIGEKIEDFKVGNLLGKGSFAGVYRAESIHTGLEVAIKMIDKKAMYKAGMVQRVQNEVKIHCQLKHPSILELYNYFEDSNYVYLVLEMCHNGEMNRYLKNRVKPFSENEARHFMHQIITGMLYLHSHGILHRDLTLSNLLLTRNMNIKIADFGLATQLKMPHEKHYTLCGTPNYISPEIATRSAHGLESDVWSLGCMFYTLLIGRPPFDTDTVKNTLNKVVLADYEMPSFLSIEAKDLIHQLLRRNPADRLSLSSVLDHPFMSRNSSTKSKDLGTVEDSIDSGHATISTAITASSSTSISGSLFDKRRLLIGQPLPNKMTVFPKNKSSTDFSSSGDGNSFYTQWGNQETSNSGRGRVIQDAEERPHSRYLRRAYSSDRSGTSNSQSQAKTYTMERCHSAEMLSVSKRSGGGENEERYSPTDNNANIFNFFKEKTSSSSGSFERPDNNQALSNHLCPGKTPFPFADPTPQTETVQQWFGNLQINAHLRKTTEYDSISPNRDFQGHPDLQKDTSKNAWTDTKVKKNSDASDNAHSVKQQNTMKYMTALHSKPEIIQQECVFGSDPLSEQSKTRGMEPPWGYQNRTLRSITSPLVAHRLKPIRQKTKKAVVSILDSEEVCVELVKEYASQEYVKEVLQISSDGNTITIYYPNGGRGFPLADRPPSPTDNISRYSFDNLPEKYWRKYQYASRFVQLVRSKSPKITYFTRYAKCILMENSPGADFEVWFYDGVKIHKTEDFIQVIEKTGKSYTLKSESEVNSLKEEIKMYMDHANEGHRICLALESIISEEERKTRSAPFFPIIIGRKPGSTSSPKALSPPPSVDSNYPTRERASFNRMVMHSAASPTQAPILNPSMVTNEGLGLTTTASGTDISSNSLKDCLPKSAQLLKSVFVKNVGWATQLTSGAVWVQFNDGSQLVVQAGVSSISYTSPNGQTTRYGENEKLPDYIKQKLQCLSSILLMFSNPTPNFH
Nature of the experiment: Selectivity interaction (Ambit KINOMEscan and KiNATiv profiling in Jurkat cells) EUB0000090b PLK4. Particulars: at 1 µM. It counts as cell-based.

For experiment [3], the target named is T2, Tyrosine-protein kinase JAK3 (Homo sapiens) (UniProt P52333).
T2 sequence (whole entry): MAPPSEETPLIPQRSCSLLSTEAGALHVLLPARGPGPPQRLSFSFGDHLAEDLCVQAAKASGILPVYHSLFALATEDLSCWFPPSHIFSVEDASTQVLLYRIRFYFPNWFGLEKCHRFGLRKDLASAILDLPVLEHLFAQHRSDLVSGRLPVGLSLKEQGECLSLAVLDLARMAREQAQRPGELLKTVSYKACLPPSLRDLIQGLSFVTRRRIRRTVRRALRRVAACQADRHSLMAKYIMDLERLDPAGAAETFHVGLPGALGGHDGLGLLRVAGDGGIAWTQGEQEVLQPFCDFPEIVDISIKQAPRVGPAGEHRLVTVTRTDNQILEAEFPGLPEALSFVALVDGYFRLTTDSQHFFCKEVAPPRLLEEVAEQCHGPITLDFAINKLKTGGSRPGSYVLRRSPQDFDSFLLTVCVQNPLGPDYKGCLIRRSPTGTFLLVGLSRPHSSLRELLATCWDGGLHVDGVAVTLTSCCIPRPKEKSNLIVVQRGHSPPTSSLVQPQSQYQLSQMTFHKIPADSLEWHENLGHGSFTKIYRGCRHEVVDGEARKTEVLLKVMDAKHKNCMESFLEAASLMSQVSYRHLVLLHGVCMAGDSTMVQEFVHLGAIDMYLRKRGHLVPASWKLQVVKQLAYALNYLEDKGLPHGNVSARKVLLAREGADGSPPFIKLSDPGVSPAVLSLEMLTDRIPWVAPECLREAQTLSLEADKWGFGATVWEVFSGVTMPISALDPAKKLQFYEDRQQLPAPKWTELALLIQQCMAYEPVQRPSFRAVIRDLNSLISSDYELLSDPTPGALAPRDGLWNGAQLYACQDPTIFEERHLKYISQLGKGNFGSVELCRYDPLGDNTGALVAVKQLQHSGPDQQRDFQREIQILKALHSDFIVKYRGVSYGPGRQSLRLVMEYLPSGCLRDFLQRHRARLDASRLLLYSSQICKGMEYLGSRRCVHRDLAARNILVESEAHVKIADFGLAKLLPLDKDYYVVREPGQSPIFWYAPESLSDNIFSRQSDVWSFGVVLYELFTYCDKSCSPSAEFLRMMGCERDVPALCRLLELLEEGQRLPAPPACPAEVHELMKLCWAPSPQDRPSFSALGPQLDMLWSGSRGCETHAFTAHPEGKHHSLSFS
Nature of the experiment: Selectivity interaction (KinomeScan (DiscoverX)) EUB0000666a JAK3. Particulars: at 10 µM.

Experiment [4] deals with Protein arginine N-methyltransferase 5 (Homo sapiens, UniProt O14744). The note with it: at 1 µM.
Chain of Protein arginine N-methyltransferase 5 (O14744 whole entry): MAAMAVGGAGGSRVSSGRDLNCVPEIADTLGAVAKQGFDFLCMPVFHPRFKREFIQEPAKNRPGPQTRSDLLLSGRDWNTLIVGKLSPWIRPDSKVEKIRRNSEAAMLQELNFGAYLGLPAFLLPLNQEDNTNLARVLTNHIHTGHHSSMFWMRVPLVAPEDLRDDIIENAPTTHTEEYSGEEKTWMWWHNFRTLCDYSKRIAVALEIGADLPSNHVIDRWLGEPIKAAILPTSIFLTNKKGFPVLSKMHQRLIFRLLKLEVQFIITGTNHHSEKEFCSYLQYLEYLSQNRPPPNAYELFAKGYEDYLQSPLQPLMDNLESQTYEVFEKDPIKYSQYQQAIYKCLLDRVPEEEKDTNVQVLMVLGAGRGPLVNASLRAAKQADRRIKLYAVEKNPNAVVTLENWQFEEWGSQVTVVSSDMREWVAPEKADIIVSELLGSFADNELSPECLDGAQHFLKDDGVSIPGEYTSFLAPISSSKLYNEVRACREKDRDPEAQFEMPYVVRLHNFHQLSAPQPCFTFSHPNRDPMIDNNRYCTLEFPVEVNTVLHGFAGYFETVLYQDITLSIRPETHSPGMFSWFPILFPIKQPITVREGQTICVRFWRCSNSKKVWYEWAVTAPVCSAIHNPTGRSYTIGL
The target in experiment [5] is T3, Serine/threonine-protein kinase BRSK1 (Homo sapiens) (UniProt Q8TDC3).
T3 sequence (whole entry): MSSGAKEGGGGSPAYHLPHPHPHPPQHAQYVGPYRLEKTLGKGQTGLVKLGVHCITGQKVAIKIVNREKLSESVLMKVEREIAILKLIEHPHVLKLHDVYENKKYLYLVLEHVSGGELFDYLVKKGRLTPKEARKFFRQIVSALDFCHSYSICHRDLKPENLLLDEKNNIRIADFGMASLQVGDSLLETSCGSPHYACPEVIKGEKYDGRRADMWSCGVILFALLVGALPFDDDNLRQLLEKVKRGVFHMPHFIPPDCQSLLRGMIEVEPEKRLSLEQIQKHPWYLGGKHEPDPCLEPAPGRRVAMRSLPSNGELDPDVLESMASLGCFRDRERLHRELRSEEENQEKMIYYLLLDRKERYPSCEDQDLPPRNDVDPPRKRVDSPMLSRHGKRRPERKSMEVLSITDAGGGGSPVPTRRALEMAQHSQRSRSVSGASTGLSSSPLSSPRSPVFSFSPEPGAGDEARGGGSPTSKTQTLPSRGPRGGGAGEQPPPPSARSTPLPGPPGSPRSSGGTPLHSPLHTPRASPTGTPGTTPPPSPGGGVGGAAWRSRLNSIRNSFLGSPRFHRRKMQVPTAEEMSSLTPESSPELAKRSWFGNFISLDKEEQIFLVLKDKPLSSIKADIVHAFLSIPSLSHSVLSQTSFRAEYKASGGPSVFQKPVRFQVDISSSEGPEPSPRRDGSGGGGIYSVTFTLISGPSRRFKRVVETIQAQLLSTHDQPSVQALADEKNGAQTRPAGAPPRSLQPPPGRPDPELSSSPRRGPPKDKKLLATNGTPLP
Nature of the experiment: Selectivity interaction (KinomeScan (DiscoverX)) EUB0000607a BRSK1. Particulars: at 10 µM.

Chain of Dual specificity protein kinase CLK4 (Q9HAZ1 whole entry, looked up): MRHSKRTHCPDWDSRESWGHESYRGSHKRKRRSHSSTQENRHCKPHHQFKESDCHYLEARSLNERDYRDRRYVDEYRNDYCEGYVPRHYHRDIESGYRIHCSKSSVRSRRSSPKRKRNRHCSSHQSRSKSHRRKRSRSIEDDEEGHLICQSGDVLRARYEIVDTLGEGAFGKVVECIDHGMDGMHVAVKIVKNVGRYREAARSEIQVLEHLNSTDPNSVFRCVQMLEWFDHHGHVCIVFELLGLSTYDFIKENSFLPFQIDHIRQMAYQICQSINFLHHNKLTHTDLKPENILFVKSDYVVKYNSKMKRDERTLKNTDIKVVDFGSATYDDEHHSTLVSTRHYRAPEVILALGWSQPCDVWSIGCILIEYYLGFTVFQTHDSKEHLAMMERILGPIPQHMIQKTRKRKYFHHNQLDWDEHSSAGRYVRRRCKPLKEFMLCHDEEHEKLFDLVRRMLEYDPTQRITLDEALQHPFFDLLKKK

`C=CC(=O)Nc1cccc(C(=O)Nc2ccc(Nc3cc(-c4[nH]c(SC)nc4C)ccn3)cc2)c1`: the % of control in experiment [1] (at 1 µM) was 46%; in experiment [1] (at 5 µM), 20%.
On to `CN(C)C/C=C/C(=O)Nc1ccc(C(=O)N2CCCC(Nc3ncc(Cl)c(-c4c[nH]c5ccccc45)n3)C2)cc1` (stereo unspecified), for which the % of control in experiment [2] was 82%.
In experiment [3], `O=C(NOC[C@H](O)CO)c1ccc(F)c(F)c1Nc1ccc(I)cc1F` came in with a % of control of 100%.
In turn, `CNCCN1CCC(c2cc(CN(C)C(=O)c3cccc(Oc4ccccc4)c3)ccn2)CC1` showed a % activity in experiment [4] of more than 90%.
Regarding `CNC(=O)Nc1ccc(-c2nc(N3CC4CCC(C3)O4)c3cnn(C4CCC5(CC4)OCCO5)c3n2)cc1`, the % of control in experiment [5] worked out at 100%.
